Assay results: patent publication US12043613B2, “Inhibitors of SARM1” (Disarm Therapeutics, Inc., priority 2020, dated 2024)
pIC50: −log10 of the molar value.

What follows are compounds tested against T1, SARM1 (ARM-SAM-TIR, full length SARM1) (Homo sapiens, UniProt Q6SZW1) (assay: not given). Conditions: read-out: SARM1 IC50; ARM-SAM-TIR lysate 5 μg/mL from NRK1-HEK293T cells, 2 h pre-incubation, 5 uM NAD+, 2 hr room temperature.
T1 sequence (Q6SZW1 with tags, fused parts or gaps): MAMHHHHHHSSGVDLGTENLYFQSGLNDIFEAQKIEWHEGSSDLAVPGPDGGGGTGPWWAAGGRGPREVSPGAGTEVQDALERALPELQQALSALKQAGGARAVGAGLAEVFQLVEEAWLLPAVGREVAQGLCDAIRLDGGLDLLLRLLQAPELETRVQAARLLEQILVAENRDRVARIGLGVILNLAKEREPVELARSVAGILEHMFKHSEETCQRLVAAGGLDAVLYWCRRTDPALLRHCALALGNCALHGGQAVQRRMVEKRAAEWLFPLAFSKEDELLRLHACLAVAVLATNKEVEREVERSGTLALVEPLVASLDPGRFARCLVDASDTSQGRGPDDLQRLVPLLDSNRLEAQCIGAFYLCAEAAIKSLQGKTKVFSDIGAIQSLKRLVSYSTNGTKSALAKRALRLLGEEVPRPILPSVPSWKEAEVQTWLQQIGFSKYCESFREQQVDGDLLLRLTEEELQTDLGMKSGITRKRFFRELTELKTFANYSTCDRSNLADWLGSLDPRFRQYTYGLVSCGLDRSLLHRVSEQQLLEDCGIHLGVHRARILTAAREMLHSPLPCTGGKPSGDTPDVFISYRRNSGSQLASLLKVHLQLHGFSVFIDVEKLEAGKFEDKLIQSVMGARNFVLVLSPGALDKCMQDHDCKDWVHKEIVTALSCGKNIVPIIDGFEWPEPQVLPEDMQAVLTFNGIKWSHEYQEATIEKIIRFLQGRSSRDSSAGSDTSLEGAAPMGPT

Structure (SMILES) | pIC50
O=C1C(Cc2ccc(F)c(F)c2)CCN1c1cc(-c2ccncc2)n[nH]1 (single isomer, unassigned) [I-16* (peak 2)] | > 7.30
O=C1C(Cc2ccc(Cl)cc2)CCCN1c1nnc(-c2ccncc2)[nH]1 (single isomer, unassigned) [I-5* (peak 2)] | > 7.30
O=C1C(Cc2cnc(Cl)c(F)c2)CCN1c1cc(-c2ccncc2)n[nH]1 (single isomer, unassigned) [I-65* (peak 2)] | > 7.30
O=C1[C@H](Cc2ccc(F)cc2)CCCN1c1cc(-c2ccnnc2)n[nH]1 [I-85*] | > 7.30
O=C1C(Cc2ccc(Cl)cc2)CCCN1c1cc(-c2ccncc2)n[nH]1 (single isomer, unassigned) [I-19* (peak 2)] | > 7.30
N#Cc1ccc(CC2CCN(c3cc(-c4ccncc4)n[nH]3)C2=O)cc1F (single isomer, unassigned) [I-37* (peak 2)] | 7.00 to 7.29
Cc1c(-c2ccncc2)n[nH]c1N1CCC(Cc2ccc(Cl)nc2)C1=O (single isomer, unassigned) [I-48* (peak 2)] | 6.30 to 7.00
Cc1c(-c2ccncc2)n[nH]c1N1CCC(Cc2cnc(Cl)c(F)c2)C1=O (single isomer, unassigned) [I-41* (peak 2)] | 6.30 to 7.00
O=C1[C@H](Cc2ccc(F)nc2)CCCN1c1cc(-c2ccnnc2)n[nH]1 [I-84*] | > 7.30
O=C1[C@H](Cc2ccc(Cl)c(F)c2)CCCN1c1cc(-c2ccnnc2)n[nH]1 [I-76*] | > 7.30
O=C1[C@H](Cc2ccc(Cl)nc2)CCCN1c1cc(-c2ccnnc2)n[nH]1 [I-77*] | > 7.30
O=C1N(c2nc(-c3ccncc3)n[nH]2)CCC1(F)Cc1ccc(Cl)nc1 (single isomer, unassigned) [I-42* (peak 2)] | < 6.00

What follows are compounds tested against T1, SARM1 (ARM-SAM-TIR, full length SARM1) (assay: biochemical). Conditions: SARM1 IC50 (nM), ARM-SAM-TIR lysate 5 μg/mL from NRK1-HEK293T cells, 2 h pre-incubation, 5 uM NAD+, 2 hr room temperature.
Procedure: This assay makes use of full length SARM1, which encompasses the ARM, SAM and TIR domains.
Preparation of ARM-SAM-TIR lysate (STL)
NRK1-HEK293T cells were seeded onto 150 cm^2 plates at 20×10^6 cells per plate. The next day, the cells were transfected with 15 g ARM-SAM-TIR expression plasmid, SEQ ID NO: 1.
The cultures were supplemented with 1 mM NR at time of transfection to minimize toxicity from ARM-SAM-TIR overexpression. Forty-eight hours after transfection, cells were harvested, pelleted by centrifugation at 1,000 rpm (Sorvall ST 16R centrifuge, Thermo Fisher), and washed once with cold PBS (0.01 M phosphate buffered saline NaCl 0.138 M; KCl 0.0027 M; pH 7.4). The cells were resuspended in PBS with protease inhibitors (cOmplete™ protease inhibitor cocktail, Roche product #11873580001) and cell lysates were prepared by sonication (Branson Sonifer 450, output=3, 20 episodes of stroke). The lysates were centrifuged (12,000×g for 10 min at 4° C.) to remove cell debris and the supernatants (containing ARM-SAM-TIR protein) were stored at −80° C. for later use in the in vitro ARM-SAM-TIR NADase assay (see below). Protein concentration was determined by the Bicinchoninic (BCA) method and used to normalize lysate concentrations.
ARM-SAM-TIR IC50 assay of Formula I compounds.
The enzymatic assay was performed in a 384-well polypropylene plate in Dulbecco's PBS buffer in a final assay volume of 20 μL. ARM-SAM-TIR lysate with a final concentration of 5 μg/mL was pre-incubated with the respective compound at 1% DMSO final assay concentration over 2h at room temperature. The reaction was initiated by addition of 5 uM final assay concentration of NAD+ as substrate. After a 2 hr room temperature incubation, the reaction was terminated with 40 μL of stop solution of 7.5% trichloroactetic acid in acetonitrile. The NAD+ and ADPR concentrations were analyzed by a RapidFire High Throughput Mass Spectrometry System (Agilent Technologies, Santa Clara, Calif.) using an API4000 triple quadrupole mass spectrometer (AB Sciex Framingham, Mass.).

Structure (SMILES) | IC50 [nM]
N#Cc1cc(CC2CCCN(c3nc(-c4ccncc4)n[nH]3)C2=O)ccc1Cl (centres unmarked) [Compound I-103] | 101 to 500
O=C1C(Cc2ccc(Cl)nc2)CCN1c1[nH]nc(-c2ccncc2)c1F (centres unmarked) [Compound I-36] | < 50
